Laboratory results published in US4760136A, “Chartreusin derivatives and salts thereof” (Ishihara Sangyo Kaisha, Ltd., priority 1984, dated 1988).
Where a name gives a salt, the structure may show the parent alone.

Key:
P-388 leukemia cells = assay: Antitumor activity: P-388 leukemia cells inoculated intraperitoneally, drug administered intravenously, BDF1 mice; type: in vivo; conditions: BDF1 mice, P-388 i.p.; for response vs control in vivo at 20 mg/kg / response vs control in vivo at 40 mg/kg / response vs control in vivo at 80 mg/kg: Mus musculus, P388, iv, read-out: T/C (%) of MST; for response vs control in vivo at 80 mg/kg: dose f: 80 mg/kg × 3, i.v. on days 1, 5 and 9
Method: Into BDF1 mice were inoculated intraperitoneally P-388 leukemia cells at a rate of 1×10^6 cells/mouse, and each drug to be tested was administered intravenously on the first, fifth and ninth days after the inoculation. […] The drugs were as follows solutions prepared by adding physiological saline to each of compound Nos. 8, 9, 10, 11, 17, 34, 42, 59, 80 and 134; suspensions prepared by dispersing each of compound Nos. 41, 78, 98, 100, 130, 191, 212, 213, 215, 227 and 230 to 232 and a small amount of sodium carboxymethyl cellulose (Na.CMC) in physiological saline, […]

[1] = Acute toxicity, intravenous (once), ddY mice; type: in vivo; conditions: mouse, in vivo, iv, formulated per Preparation Example
Source text: In Table 7 are shown acute toxicity values (LD50, mg/kg) in ddY mice in the case of intravenously administering (once) each of the compounds of this invention in the form of preparations shown in the Preparation Examples shown in Table 7.

[2] = dose b: 20 mg/kg × 3, i.v. on days 1, 5 and 9
[3] = dose c: 40 mg/kg × 3, i.v. on days 1, 5 and 9

Row | SMILES | response vs control in vivo at 20 mg/kg (P-388 leukemia cells; [2]) [%] | LD50 [1] [mg/kg] | T/C (%) of MST (P-388 leukemia cells; [3]) [%] | response vs control in vivo at 40 mg/kg (P-388 leukemia cells; [3]) [%] | T/C (%) of MST (P-388 leukemia cells; [2]) [%] | response vs control in vivo at 80 mg/kg (P-388 leukemia cells) [%]
1 | COC1C(O)C(C)OC(OC2C(Oc3cccc4c(OC(=O)C5CCCCC5NC(=O)C(F)(F)F)c5c(=O)oc6ccc(C)c7c(=O)oc(c34)c5c67)OC(C)C3OC(c4cccc(F)c4)OC32)C1O (single isomer, unassigned) [Compound No. 27, 6-O-(N-Trifluoroacetyl-2-Amino-Cyclohexanecarbonyl)-3',4'-O-(m-Fluorobenzylidene)-Chartreusin] | 179 | ≥ 30 | – | – | – | –
2 | COC1C(O)C(C)OC(OC2C(Oc3cccc4c(OC(=O)C5CCCCC5NC(=O)C(F)(F)F)c5c(=O)oc6ccc(C)c7c(=O)oc(c34)c5c67)OC(C)C3OC(c4ccccc4)OC32)C1O (single isomer, unassigned) [Compound No. 118, 6-O-(N-Trifluoroacetyl-2-Amino-Cyclohexanecarbonyl)-3',4'-O-Benzylidene-Chartreusin] | – | ≥ 40 | 135 | – | – | –
3 | COC1C(O)C(C)OC(OC2C(Oc3cccc4c(OC(=O)C(C)CN(C)C)c5c(=O)oc6ccc(C)c7c(=O)oc(c34)c5c67)OC(C)C3OC(c4ccccc4)OC32)C1O (stereo not drawn) [Compound No. 1, 6-O-(N,N-Dimethyl-β-Amino-Isobutyryl)-3',4'-O-Benzylidene-ChartreusinHydrochloride] | 138 | ≥ 40 | – | 214 | – | –
4 | COC1C(O)C(C)OC(OC2C(Oc3cccc4c(OC(=O)C(C)CNC(C)C)c5c(=O)oc6ccc(C)c7c(=O)oc(c34)c5c67)OC(C)C3OC(c4ccccc4)OC32)C1O (stereo not drawn) [Compound No. 2, 6-O-(N-Isopropyl-β-Amino-Isobutyryl)-3',4'-O-Benzylidene-Chartreusin Hydrochloride] | 184 | ≥ 40 | – | 216 | – | –
5 | COC1C(O)C(C)OC(OC2C(Oc3cccc4c(OC(=O)C(C)CNC(=O)CN)c5c(=O)oc6ccc(C)c7c(=O)oc(c34)c5c67)OC(C)C3OC(c4ccccc4)OC32)C1O (centres unmarked) [Compound No. 3] | 150 | ≥ 40 | – | 192 | – | –
6 | COC1C(O)C(C)OC(OC2C(Oc3cccc4c(OC(=O)C(C)CNC(=O)CN(C)C)c5c(=O)oc6ccc(C)c7c(=O)oc(c34)c5c67)OC(C)C3OC(c4ccccc4)OC32)C1O (centres unmarked) [Compound No. 4] | 184 | ≥ 40 | – | 216 | – | –
7 | COC1C(O)C(C)OC(OC2C(Oc3cccc4c(OC(=O)C(C)CN)c5c(=O)oc6ccc(C)c7c(=O)oc(c34)c5c67)OC(C)C3OC(c4ccccc4)OC32)C1O (stereo not drawn) [Compound No. 6, 6-O-(β-Amino-Isobutyryl)-3',4'-O-Benzylidene-Chartreusin Phosphate] | 182 | ≥ 40 | – | 242 | – | –
8 | CCN(CC)CCC(=O)Oc1c2cccc(OC3OC(C)C4OC(c5ccccc5)OC4C3OC3OC(C)C(O)C(OC)C3O)c2c2oc(=O)c3c(C)ccc4oc(=O)c1c2c43 (stereo not drawn) [Compound No. 8, 6-O-(N,N-Diethyl-β-Alanyl)-3',4'-O-Benzylidene-Chartreusin Hydrochloride] | 186 | ≥ 40 | – | 220 | – | –
9 | COC1C(O)C(C)OC(OC2C(Oc3cccc4c(OC(=O)CCN5CCCC5)c5c(=O)oc6ccc(C)c7c(=O)oc(c34)c5c67)OC(C)C3OC(c4ccccc4)OC32)C1O (centres unmarked) [Compound No. 9] | 165 | ≥ 40 | – | 292 | – | –
10 | COC1C(O)C(C)OC(OC2C(Oc3cccc4c(OC(=O)CNC(=O)CNC(=O)CN)c5c(=O)oc6ccc(C)c7c(=O)oc(c34)c5c67)OC(C)C3OC(c4ccccc4)OC32)C1O (centres unmarked) [Compound No. 11] | 186 | ≥ 40 | – | – | – | –
11 | COC1C(O)C(C)OC(OC2C(Oc3cccc4c(OC(=O)C(C)CNC(=O)C(F)(F)F)c5c(=O)oc6ccc(C)c7c(=O)oc(c34)c5c67)OC(C)C3OC(c4ccccc4)OC32)C1O (stereo not drawn) [Compound No. 12, 6-O-(N-Trifluoroacetyl-β-Amino-Isobutyryl)-3',4'-O-Benzylidene-Chartreusin] | 203 | ≥ 40 | 241 | – | – | –
12 | COC1C(O)C(C)OC(OC2C(Oc3cccc4c(OC(=O)C(C)CNC(=O)c5ccccc5)c5c(=O)oc6ccc(C)c7c(=O)oc(c34)c5c67)OC(C)C3OC(c4ccccc4)OC32)C1O (centres unmarked) [Compound No. 13] | 186 | ≥ 40 | – | 262 | – | –
13 | COC1C(O)C(C)OC(OC2C(Oc3cccc4c(OC(=O)C(C)CN)c5c(=O)oc6ccc(C)c7c(=O)oc(c34)c5c67)OC(C)C3OC(c4cccc(F)c4)OC32)C1O (centres unmarked) [Compound No. 14] | 195 | ≥ 30 | – | – | – | –
14 | CCN(CC)CCC(=O)Oc1c2cccc(OC3OC(C)C4OC(c5cccc(F)c5)OC4C3OC3OC(C)C(O)C(OC)C3O)c2c2oc(=O)c3c(C)ccc4oc(=O)c1c2c43 (stereo not drawn) [Compound No. 15, 6-O-(N,N-diethyl-β-alanyl)-3',4'-O-(m-fluorobenzylidene)-chartreusin hydrochloride] | 189 | ≥ 30 | – | – | – | –
15 | COC1C(O)C(C)OC(OC2C(Oc3cccc4c(OC(=O)CCN)c5c(=O)oc6ccc(C)c7c(=O)oc(c34)c5c67)OC(C)C3OC(c4cccc(F)c4)OC32)C1O (stereo not drawn) [Compound No. 16, 6-O-(β-alanyl)-3',4'-O-(m-fluorobenzylidene)-chartreusin phosphate] | 164 | ≥ 40 | – | 242 | – | –
16 | COC1C(O)C(C)OC(OC2C(Oc3cccc4c(OC(=O)CCN)c5c(=O)oc6ccc(C)c7c(=O)oc(c34)c5c67)OC(C)C3OC(c4ccccc4)OC32)C1O (centres unmarked) [Compound No. 18] | – | ≥ 40 | 238 | – | 196 | –
17 | COC1C(O)C(C)OC(OC2C(Oc3cccc4c(OC(=O)CCCCCN)c5c(=O)oc6ccc(C)c7c(=O)oc(c34)c5c67)OC(C)C3OC(c4ccccc4)OC32)C1O (centres unmarked) [Compound No. 19] | 184 | ≥ 40 | – | 233 | – | –
18 | COC1C(O)C(C)OC(OC2C(Oc3cccc4c(OC(=O)CCNC=O)c5c(=O)oc6ccc(C)c7c(=O)oc(c34)c5c67)OC(C)C3OC(c4ccccc4)OC32)C1O (centres unmarked) [Compound No. 20] | – | – | – | 248 | 203 | –
19 | COC1C(O)C(C)OC(OC2C(Oc3cccc4c(OC(=O)CCNC(=O)C(F)(F)F)c5c(=O)oc6ccc(C)c7c(=O)oc(c34)c5c67)OC(C)C3OC(c4ccccc4)OC32)C1O (centres unmarked) [Compound No. 21] | 210 | – | 229 | – | – | –
20 | COC1C(O)C(C)OC(OC2C(Oc3cccc4c(OC(=O)C(C)CNC(=O)C(F)(F)F)c5c(=O)oc6ccc(C)c7c(=O)oc(c34)c5c67)OC(C)C3OC(c4ccccc4)OC32)C1O (centres unmarked) [Compound No. 44] | – | – | 164 | – | – | 217
21 | COC1C(O)C(C)OC(OC2C(Oc3cccc4c(OC(=O)CCNC=O)c5c(=O)oc6ccc(C)c7c(=O)oc(c34)c5c67)OC(C)C3OC(c4ccccc4)OC32)C1O (centres unmarked) [Compound No. 45] | – | – | – | 220 | 164 | –
22 | COC1C(O)C(C)OC(OC2C(Oc3cccc4c(OC(=O)CCCOCc5ccccc5)c5c(=O)oc6ccc(C)c7c(=O)oc(c34)c5c67)OC(C)C3OC(c4ccccc4)OC32)C1O (centres unmarked) [Compound No. 165, 6-O-(4-benzyloxy-n-butyryl)-3',4'-O-Benzylidene-Chartreusin] | 189 | – | – | – | – | –
23 | COC1C(O)C(C)OC(OC2C(Oc3cccc4c(OC(=O)CCNC(=O)OCc5ccccc5)c5c(=O)oc6ccc(C)c7c(=O)oc(c34)c5c67)OC(C)C3OC(c4ccccc4)OC32)C1O (centres unmarked) [compound 103] | – | – | – | 146 | – | 203
24 | COC1C(O)C(C)OC(OC2C(Oc3cccc4c(OC(=O)CNC(=O)OCc5ccccc5)c5c(=O)oc6ccc(C)c7c(=O)oc(c34)c5c67)OC(C)C3OC(c4ccccc4)OC32)C1O (centres unmarked) [compound 104] | – | – | – | 137 | – | –
25 | COC1C(O)C(C)OC(OC2C(Oc3cccc4c(OC(=O)c5cccc(Cl)c5)c5c(=O)oc6ccc(C)c7c(=O)oc(c34)c5c67)OC(C)C3OC(C)(C)OC32)C1O (centres unmarked) [compound 226] | – | – | – | 145 | – | –
